Data on 10 compounds can be found in patent publication US6825170B2, “6-O-acyl ketolide antibacterials” (Ortho-McNeil Pharmaceutical, Inc., priority 2001, dated 2004).

Assay in all cases: MIC, microdilution broth method (NCCLS)
What all share (assay type): cell-based
Conditions in all cases: 35° C., 16-20 hours

For experiment [1], the system named is E. faecalis ATCC29212. The procedure:
(§1) Minimal inhibitory concentration (MIC) has been an indicator of in vitro antibacterial activity widely used in the art. The in vitro antimicrobial activity of the compounds was determined by the microdilution broth method following the test method from the National Committee for Clinical Laboratory Standards (NCCLS). This method is described in the NCCLS Document M7-A4, Vol.17, No.2, “Methods for Dilution Antimicrobial Susceptibility Test for Bacteria that Grow Aerobically—Fourth Edition”, which is incorporated herein by reference.
(§2) In this method two-fold serial dilutions of drug in cation adjusted Mueller-Hinton broth are added to wells in microdilution trays. The test organisms are prepared by adjusting the turbidity of actively growing broth cultures so that the final concentration of test organism after it is added to the wells is approximately 5×10^4 CFU/well.
(§3) Following inoculation of the microdilution trays, the trays are incubated at 35° C. for 16-20 hours and then read. […] The amount of growth in the wells containing the test compound is compared with the amount of growth in the growth-control wells (no test compound) used in each tray. As set forth in Table 1, compounds of the present invention were tested against a variety of Gram positive and Gram negative pathogenic bacteria resulting in a range of activities depending on the organism tested.

The subject of experiment [2] is S. pneumoniae ATCC49619. The procedure:
as §1, §2, §3

Experiment [3] concerns H. influenzae ATCC49247. How it is done:
as §1, §2, §3

Experiment [4] relates to S. aureus ATCC29213. The procedure: as §1, §2, §3

Each structure is given as a SMILES string. Values after ≈ are worked out from the molar mass of the structure shown.

On to `CC[C@H]1OC(=O)[C@H](C)C(=O)[C@H](C)[C@@H](O[C@@H]2O[C@H](C)C[C@H](N(C)C)[C@H]2O)[C@](C)(OC(=O)NN(C(C)=O)S(=O)(=O)c2ccc(C)cc2)C[C@@H](C)C(=O)[C@H](C)[C@H]2NC(=O)O[C@@]21C` [Compound 810], for which, in experiment [1], the “MIC (C: E. faecalis ATCC29212)” value is 0.5 µg/mL (≈ 0.586 µM). In experiment [2], the “MIC (D: S. pneumoniae ATCC49619)” value came out at 0.06 µg/mL (≈ 0.0703 µM). In experiment [3], the “MIC (E: H. influenzae ATCC49247)” value came out at 4 µg/mL (≈ 4.69 µM). In addition, the “MIC (B: S. aureus ATCC29213)” value in experiment [4] worked out at 2 µg/mL (≈ 2.34 µM).

Regarding `CC[C@H]1OC(=O)[C@H](C)C(=O)[C@H](C)[C@@H](O[C@@H]2O[C@H](C)C[C@H](N(C)C)[C@H]2O)[C@](C)(OC(=O)NNS(=O)(=O)c2ccc(-n3cccn3)cc2)C[C@@H](C)C(=O)[C@H](C)[C@H]2NC(=O)O[C@@]21C` [Compound 811], the “MIC (C: E. faecalis ATCC29212)” value in experiment [1] was found to be 0.5 µg/mL (≈ 0.579 µM). Besides, the “MIC (D: S. pneumoniae ATCC49619)” value in experiment [2] is 0.06 µg/mL (≈ 0.0695 µM). In addition, the “MIC (E: H. influenzae ATCC49247)” value in experiment [3] amounted to 4 µg/mL (≈ 4.63 µM). In addition, the “MIC (B: S. aureus ATCC29213)” value in experiment [4] turned out to be 2 µg/mL (≈ 2.32 µM).

Take `CC[C@H]1OC(=O)[C@H](C)C(=O)[C@H](C)[C@@H](O[C@@H]2O[C@H](C)C[C@H](N(C)C)[C@H]2O)[C@](C)(OC(=O)NNC(C)=O)C[C@@H](C)C(=O)[C@H](C)[C@H]2NC(=O)O[C@@]21C` [Compound 812]: the “MIC (C: E. faecalis ATCC29212)” value in experiment [1] is 4 µg/mL (≈ 5.72 µM). In addition, the “MIC (D: S. pneumoniae ATCC49619)” value in experiment [2] worked out at 2 µg/mL (≈ 2.86 µM). Besides, in experiment [3], the “MIC (E: H. influenzae ATCC49247)” value is more than 16 µg/mL. In experiment [4], the “MIC (B: S. aureus ATCC29213)” value is more than 16 µg/mL.

As for `CC[C@H]1OC(=O)[C@H](C)C(=O)[C@H](C)[C@@H](O[C@@H]2O[C@H](C)C[C@H](N(C)C)[C@H]2O)[C@](C)(OC(=O)NNC(=O)c2ccccc2)C[C@@H](C)C(=O)[C@H](C)[C@H]2NC(=O)O[C@@]21C` [Compound 813], the “MIC (C: E. faecalis ATCC29212)” value in experiment [1] amounted to 1 µg/mL (≈ 1.31 µM). Also, in experiment [2], the “MIC (D: S. pneumoniae ATCC49619)” value worked out at 0.25 µg/mL (≈ 0.329 µM). Moreover, the “MIC (E: H. influenzae ATCC49247)” value in experiment [3] stood at 16 µg/mL (≈ 21 µM). Further, the “MIC (B: S. aureus ATCC29213)” value in experiment [4] came to 16 µg/mL (≈ 21 µM).

For the compound `CC[C@H]1OC(=O)[C@H](C)C(=O)[C@H](C)[C@@H](O[C@@H]2O[C@H](C)C[C@H](N(C)C)[C@H]2O)[C@](C)(OC(=O)NNC(=O)OCc2ccccc2)C[C@@H](C)C(=O)[C@H](C)[C@H]2NC(=O)O[C@@]21C` [Compound 814], the “MIC (C: E. faecalis ATCC29212)” value in experiment [1] was 0.5 µg/mL (≈ 0.632 µM). Further, the “MIC (D: S. pneumoniae ATCC49619)” value in experiment [2] stood at 0.12 µg/mL (≈ 0.152 µM). Also, the “MIC (E: H. influenzae ATCC49247)” value in experiment [3] was determined as 8 µg/mL (≈ 10.1 µM). Moreover, the “MIC (B: S. aureus ATCC29213)” value in experiment [4] worked out at 8 µg/mL (≈ 10.1 µM).

Take `CC[C@H]1OC(=O)[C@H](C)C(=O)[C@H](C)[C@@H](O[C@@H]2O[C@H](C)C[C@H](N(C)C)[C@H]2O)[C@](C)(OC(=O)NNC(=O)N(C)c2ccccc2)C[C@@H](C)C(=O)[C@H](C)[C@H]2NC(=O)O[C@@]21C` [Compound 815]: the “MIC (C: E. faecalis ATCC29212)” value in experiment [1] amounted to 1 µg/mL (≈ 1.27 µM). Moreover, in experiment [2], the “MIC (D: S. pneumoniae ATCC49619)” value came to 0.25 µg/mL (≈ 0.316 µM). In addition, the “MIC (E: H. influenzae ATCC49247)” value in experiment [3] came to 16 µg/mL (≈ 20.3 µM). In addition, the “MIC (B: S. aureus ATCC29213)” value in experiment [4] came out at 4 µg/mL (≈ 5.06 µM).

Consider `CC[C@H]1OC(=O)[C@H](C)C(=O)[C@H](C)[C@@H](O[C@@H]2O[C@H](C)C[C@H](N(C)C)[C@H]2O)[C@](C)(OC(=O)NN2CCCCC2)C[C@@H](C)C(=O)[C@H](C)[C@H]2NC(=O)O[C@@]21C` [Compound 816], for which, in experiment [1], the “MIC (C: E. faecalis ATCC29212)” value worked out at 1 µg/mL (≈ 1.38 µM). In addition, the “MIC (D: S. pneumoniae ATCC49619)” value in experiment [2] came to 0.5 µg/mL (≈ 0.69 µM). For the same compound, the “MIC (E: H. influenzae ATCC49247)” value in experiment [3] stood at 16 µg/mL (≈ 22.1 µM). In addition, the “MIC (B: S. aureus ATCC29213)” value in experiment [4] came to 16 µg/mL (≈ 22.1 µM).

With `CC[C@H]1OC(=O)[C@H](C)C(=O)[C@H](C)[C@@H](O[C@@H]2O[C@H](C)C[C@H](N(C)C)[C@H]2O)[C@](C)(OC(=O)N(C)NCc2ccc(-c3cnccn3)cc2)C[C@@H](C)C(=O)[C@H](C)[C@H]2NC(=O)O[C@@]21C` [Compound 817], in experiment [1], the “MIC (C: E. faecalis ATCC29212)” value worked out at 0.25 µg/mL (≈ 0.298 µM). Besides, the “MIC (D: S. pneumoniae ATCC49619)” value in experiment [2] was 0.06 µg/mL (≈ 0.0715 µM). Besides, the “MIC (E: H. influenzae ATCC49247)” value in experiment [3] turned out to be 8 µg/mL (≈ 9.54 µM). In addition, in experiment [4], the “MIC (B: S. aureus ATCC29213)” value stood at 2 µg/mL (≈ 2.38 µM).

In the case of `CC[C@H]1OC(=O)[C@H](C)C(=O)[C@H](C)[C@@H](O[C@@H]2O[C@H](C)C[C@H](N(C)C)[C@H]2O)[C@](C)(OC(=O)N(C)NCc2ccc(-c3ccccn3)cc2)C[C@@H](C)C(=O)[C@H](C)[C@H]2NC(=O)O[C@@]21C` [Compound 818], the “MIC (C: E. faecalis ATCC29212)” value in experiment [1] was determined as 0.25 µg/mL (≈ 0.298 µM). In addition, the “MIC (D: S. pneumoniae ATCC49619)” value in experiment [2] was found to be 0.06 µg/mL (≈ 0.0716 µM). For the same compound, the “MIC (E: H. influenzae ATCC49247)” value in experiment [3] turned out to be 8 µg/mL (≈ 9.55 µM). In experiment [4], the “MIC (B: S. aureus ATCC29213)” value came out at 4 µg/mL (≈ 4.77 µM).

With `CC[C@H]1OC(=O)[C@H](C)C(=O)[C@H](C)[C@@H](O[C@@H]2O[C@H](C)C[C@H](N(C)C)[C@H]2O)[C@](C)(OC(=O)N(C)N(C)Cc2ccc(-c3cnccn3)cc2)C[C@@H](C)C(=O)[C@H](C)[C@H]2NC(=O)O[C@@]21C` [Compound 819], the “MIC (C: E. faecalis ATCC29212)” value in experiment [1] worked out at 1 µg/mL (≈ 1.17 µM). Also, the “MIC (D: S. pneumoniae ATCC49619)” value in experiment [2] was determined as 0.25 µg/mL (≈ 0.293 µM). Moreover, the “MIC (E: H. influenzae ATCC49247)” value in experiment [3] was more than 16 µg/mL. In addition, the “MIC (B: S. aureus ATCC29213)” value in experiment [4] was determined as 16 µg/mL (≈ 18.8 µM).
